Structures are written as SMILES. pIC50: −log10 of the molar value. The source made the active and inactive calls. The calls are words filed in the database; no cut-off is given here.

Assay [1] concerns the target ALK tyrosine kinase receptor (Homo sapiens, UniProt Q9UM73). The experiment in a line: Inhibition of recombinant ALK (unknown origin) using poly (Glu,Tyr)4:1 as substrate after 60 mins by ELISA. For orientation: In an ELISA, binding on a coated surface is turned into a signal by an enzyme label.
The test system of the next assay is NCI-H3122. The experiment in a line: Antiproliferative activity against human NCI-H3122 cells after 72 hrs by SRB assay. It counts as functional, cell-based. The conditions noted are these: NCI-H3122, 72 h. (In SRB staining, fixed cells bind dye roughly in proportion to their protein.)
The target of assay [2] is Heat shock protein HSP 90-alpha (Homo sapiens, UniProt P07900). Briefly: Inhibition of FITC-labeled geldanamycin binding to recombinant HSP90alpha (unknown origin) after 1 hr by fluorescence polarization assay. On the technique in general: Fluorescence polarisation rises when a labelled molecule tumbles more slowly, as on binding a larger partner.
Assay [3] deals with ALK tyrosine kinase receptor (Homo sapiens, UniProt Q9UM73, L1196M). Briefly: Inhibition of ALK L1196M mutant (unknown origin) using poly (Glu,Tyr)4:1 as substrate after 60 mins by ELISA.
Assay [4] addresses ALK tyrosine kinase receptor (Homo sapiens, UniProt Q9UM73, G1202R). The experiment in a line: Inhibition of ALK G1202R mutant (unknown origin) using poly (Glu,Tyr)4:1 as substrate after 60 mins by ELISA.
The test system of the next assay is U-87 MG. Briefly: Antiproliferative activity against human U87MG cells after 72 hrs by SRB assay. It counts as functional, cell-based, U-87MG ATCC.
For the next assay, the system named is HCT-116. Briefly: Antiproliferative activity against human HCT116 cells after 72 hrs by SRB assay. The note with it: HCT-116, 72 h. It counts as functional, cell-based.
Another assay has as its system BT-474. Briefly: Antiproliferative activity against human BT474 cells after 72 hrs by SRB assay. It counts as functional, cell-based. The conditions noted are these: BT-474, 72 h.
For a further assay, the system named is MDA-MB-231. Briefly: Antiproliferative activity against human MDA-MB-231 cells after 72 hrs by SRB assay. It counts as functional, cell-based. The conditions noted are these: MDA-MB-231, 72 h.
The next assay relates to NCI-H460. Briefly: Antiproliferative activity against human NCI-H460 cells after 72 hrs by SRB assay. The class given is functional, cell-based. The note with it: NCI-H460, 72 h.
For a further assay, the system named is DU-145. Briefly: Antiproliferative activity against human DU145 cells after 72 hrs by SRB assay. It counts as functional, cell-based. The note with it: DU-145, 72 h.
The subject of a further assay is EBC-1. The experiment in a line: Antiproliferative activity against human EBC1 cells after 72 hrs by SRB assay. It counts as functional, cell-based. The note with it: EBC-1, 72 h.
The nature of assay [5]: Antiproliferative activity against human EBC1/SR cells after 72 hrs by SRB assay. It counts as functional, cell-based.
The test system of the next assay is NCI-N87. The experiment in a line: Antiproliferative activity against human NCI-N87 cells after 72 hrs by SRB assay. The class given is functional, cell-based. The note with it: NCI-N87, 72 h.
A further assay deals with A549. Briefly: Antiproliferative activity against human A549 cells after 72 hrs by SRB assay. It counts as functional, cell-based. The conditions noted are these: A549, 72 h.
For assay [6], the target named is T1, Heat shock protein HSP90 (Homo sapiens) (UniProt P07900+P08238). Briefly: Inhibition of Hsp90 in human NCI-H3122 cells assessed as decrease in ALK phosphorylation at Tyr1278 residues up to 1000 nM after 24 hrs by Western blot analysis. It counts as cell-based.
Assay [7] has as its target T1, Heat shock protein HSP90 (Homo sapiens). The experiment in a line: Inhibition of Hsp90 in human NCI-H3122 cells assessed as upregulation of Hsp70 after 24 hrs by Western blot analysis. The class given is cell-based.
Assay [8] shares this target. The experiment in a line: Inhibition of Hsp90 in human NCI-H3122 cells assessed as decrease in AKT phosphorylation at Ser473 residues up to 1000 nM after 24 hrs by Western blot analysis. It counts as cell-based.
For assay [9] the target is unchanged. The experiment in a line: Inhibition of Hsp90 in human NCI-H3122 cells assessed as decrease in ERK1/2 phosphorylation up to 1000 nM after 24 hrs by Western blot analysis. The class given is cell-based.

Chain of ALK tyrosine kinase receptor (Homo sapiens, UniProt Q9UM73) (Q9UM73 whole entry): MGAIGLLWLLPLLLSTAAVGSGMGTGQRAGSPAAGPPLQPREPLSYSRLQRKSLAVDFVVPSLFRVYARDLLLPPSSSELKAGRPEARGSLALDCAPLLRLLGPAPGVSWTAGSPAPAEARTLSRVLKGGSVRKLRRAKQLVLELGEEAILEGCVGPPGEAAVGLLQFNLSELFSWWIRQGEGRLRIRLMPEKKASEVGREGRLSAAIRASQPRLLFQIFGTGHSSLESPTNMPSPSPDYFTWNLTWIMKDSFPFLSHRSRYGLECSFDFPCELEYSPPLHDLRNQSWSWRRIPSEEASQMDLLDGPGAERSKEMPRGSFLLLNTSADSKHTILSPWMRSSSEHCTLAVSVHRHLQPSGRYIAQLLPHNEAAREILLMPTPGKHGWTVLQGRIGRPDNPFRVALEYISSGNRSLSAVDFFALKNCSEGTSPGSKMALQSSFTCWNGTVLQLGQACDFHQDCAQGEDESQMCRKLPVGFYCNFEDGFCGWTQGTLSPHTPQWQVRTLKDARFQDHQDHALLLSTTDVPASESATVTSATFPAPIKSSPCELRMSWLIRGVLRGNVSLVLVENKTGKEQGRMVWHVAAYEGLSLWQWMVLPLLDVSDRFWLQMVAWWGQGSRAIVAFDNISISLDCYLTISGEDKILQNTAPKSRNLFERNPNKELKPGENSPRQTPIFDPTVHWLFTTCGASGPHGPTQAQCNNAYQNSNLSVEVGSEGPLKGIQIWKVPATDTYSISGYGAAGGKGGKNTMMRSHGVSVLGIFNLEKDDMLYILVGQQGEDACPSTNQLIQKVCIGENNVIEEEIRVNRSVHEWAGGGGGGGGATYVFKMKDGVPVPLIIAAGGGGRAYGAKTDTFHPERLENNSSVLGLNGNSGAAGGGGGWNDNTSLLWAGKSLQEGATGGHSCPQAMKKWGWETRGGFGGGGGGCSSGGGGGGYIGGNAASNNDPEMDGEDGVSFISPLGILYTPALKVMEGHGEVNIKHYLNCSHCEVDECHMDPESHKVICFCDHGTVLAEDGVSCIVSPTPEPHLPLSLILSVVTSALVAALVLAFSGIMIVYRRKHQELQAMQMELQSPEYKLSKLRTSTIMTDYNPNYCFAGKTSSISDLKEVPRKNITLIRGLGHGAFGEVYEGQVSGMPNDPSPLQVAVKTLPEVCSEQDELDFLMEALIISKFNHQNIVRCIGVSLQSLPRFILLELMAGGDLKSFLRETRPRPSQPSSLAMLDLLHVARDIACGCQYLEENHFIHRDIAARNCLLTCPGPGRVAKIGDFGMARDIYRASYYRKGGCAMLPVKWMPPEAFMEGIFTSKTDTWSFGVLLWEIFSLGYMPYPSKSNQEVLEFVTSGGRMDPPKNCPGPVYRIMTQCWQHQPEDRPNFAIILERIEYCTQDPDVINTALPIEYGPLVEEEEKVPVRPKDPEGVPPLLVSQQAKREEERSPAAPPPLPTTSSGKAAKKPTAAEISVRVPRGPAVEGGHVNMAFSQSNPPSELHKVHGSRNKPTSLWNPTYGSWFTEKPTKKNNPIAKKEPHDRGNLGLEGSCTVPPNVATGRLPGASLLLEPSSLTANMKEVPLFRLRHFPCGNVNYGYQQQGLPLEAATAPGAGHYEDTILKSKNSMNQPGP
Chain of ALK tyrosine kinase receptor (Homo sapiens, UniProt Q9UM73, L1196M) (Q9UM73 19-1620 L1196M limits assumed): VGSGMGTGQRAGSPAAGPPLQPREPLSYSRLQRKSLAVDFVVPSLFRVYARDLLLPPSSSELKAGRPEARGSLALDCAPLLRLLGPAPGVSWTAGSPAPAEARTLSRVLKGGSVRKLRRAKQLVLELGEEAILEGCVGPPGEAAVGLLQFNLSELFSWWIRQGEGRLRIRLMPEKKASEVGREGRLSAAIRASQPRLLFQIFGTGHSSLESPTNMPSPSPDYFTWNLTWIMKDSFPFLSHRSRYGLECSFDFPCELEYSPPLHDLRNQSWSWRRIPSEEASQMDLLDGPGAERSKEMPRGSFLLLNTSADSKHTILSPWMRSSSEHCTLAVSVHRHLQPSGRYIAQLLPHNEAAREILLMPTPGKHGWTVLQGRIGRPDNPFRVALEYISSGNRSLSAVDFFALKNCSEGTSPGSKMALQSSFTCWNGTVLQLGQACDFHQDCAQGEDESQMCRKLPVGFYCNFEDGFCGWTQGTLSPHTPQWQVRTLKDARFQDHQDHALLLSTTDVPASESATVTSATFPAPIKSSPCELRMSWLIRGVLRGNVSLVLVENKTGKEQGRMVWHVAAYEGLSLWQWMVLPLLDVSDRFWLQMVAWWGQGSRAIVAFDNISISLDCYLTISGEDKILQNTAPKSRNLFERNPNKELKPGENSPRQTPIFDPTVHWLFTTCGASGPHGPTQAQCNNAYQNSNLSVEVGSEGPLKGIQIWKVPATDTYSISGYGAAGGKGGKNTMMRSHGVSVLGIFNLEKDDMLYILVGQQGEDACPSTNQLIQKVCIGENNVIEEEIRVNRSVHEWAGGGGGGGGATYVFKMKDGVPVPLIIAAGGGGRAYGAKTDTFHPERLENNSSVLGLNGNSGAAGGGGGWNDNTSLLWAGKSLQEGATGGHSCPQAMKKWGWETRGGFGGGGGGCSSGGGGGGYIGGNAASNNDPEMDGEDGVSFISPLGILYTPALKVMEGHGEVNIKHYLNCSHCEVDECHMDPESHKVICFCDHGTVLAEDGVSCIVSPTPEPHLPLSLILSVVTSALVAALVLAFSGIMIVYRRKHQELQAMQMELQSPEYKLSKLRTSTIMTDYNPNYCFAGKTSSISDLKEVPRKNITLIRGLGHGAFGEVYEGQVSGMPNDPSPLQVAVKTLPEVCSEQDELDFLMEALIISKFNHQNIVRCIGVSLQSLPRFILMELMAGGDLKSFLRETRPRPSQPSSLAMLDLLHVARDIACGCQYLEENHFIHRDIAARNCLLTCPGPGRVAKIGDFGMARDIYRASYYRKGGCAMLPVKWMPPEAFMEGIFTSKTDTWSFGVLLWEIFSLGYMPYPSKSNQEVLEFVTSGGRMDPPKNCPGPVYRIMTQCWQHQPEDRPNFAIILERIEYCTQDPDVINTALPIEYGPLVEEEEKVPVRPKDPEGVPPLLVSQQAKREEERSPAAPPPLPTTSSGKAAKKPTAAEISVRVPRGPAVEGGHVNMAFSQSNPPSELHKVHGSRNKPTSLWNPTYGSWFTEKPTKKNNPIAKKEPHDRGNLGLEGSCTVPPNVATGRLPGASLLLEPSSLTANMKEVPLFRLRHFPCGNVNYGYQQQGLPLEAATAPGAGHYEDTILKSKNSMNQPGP
Chain of ALK tyrosine kinase receptor (Homo sapiens, UniProt Q9UM73, G1202R) (Q9UM73 19-1620 G1202R limits assumed): as the sequence (Q9UM73 19-1620 L1196M limits assumed) above, with M1178L, G1184R counted along it

One may read the pIC50 as −log10 of the IC50, conventionally taken in molar units. For `CCNC(=O)c1noc(-c2cc(C(C)C)c(O)cc2O)c1-c1ccc(C(=O)NCC(=O)Nc2ccc(OC)c(Nc3ncc(Cl)c(Nc4ccccc4S(=O)(=O)C(C)C)n3)c2)cc1`, the results for the pIC50 (in assay [1]; in the assay with NCI-H3122; in assay [2]) were 7.08, 6.80 and less than 6.00, respectively.

For the molecule `CCNC(=O)c1noc(-c2cc(C(C)C)c(O)cc2O)c1-c1ccc(C(=O)N2CCN(CC(=O)Nc3cccc(Nc4ncc(Cl)c(Nc5ccccc5S(=O)(=O)C(C)C)n4)c3)CC2)cc1`, the figures for the negative-log IC50 (pIC50) (in [1]; in the assay on NCI-H3122; in [2]) were 7.64, 6.95 and 6.91, respectively.

Turning to `CCNC(=O)c1noc(-c2cc(C(C)C)c(O)cc2O)c1-c1ccc(CN2CCN(CC(=O)NCC(=O)Nc3ccc(OC)c(Nc4ncc(Cl)c(Nc5ccccc5S(=O)(=O)C(C)C)n4)c3)CC2)cc1`, the pIC50 in assay [3] is 8.06; in [1], 8.16; in [4], 7.44; with U-87 MG it was 6.69; in the assay on HCT-116, 6.71; in the assay with BT-474, 7.22. Besides, the pIC50 was 6.87 in the assay on MDA-MB-231; 7.34 in the assay with NCI-H3122; 6.20 in the assay on NCI-H460; 7.07 in assay [2]; 6.44 with DU-145; 6.79 with EBC-1. In addition, the pIC50 in assay [5] is 6.31; with NCI-N87, 6.64; in the assay on A549, 6.21.

With `COc1ccc(Nc2ncc(Cl)c(Nc3ccccc3S(=O)(=O)C(C)C)n2)cc1NC(=O)CNC(=O)c1noc(-c2cc(C(C)C)c(O)cc2O)c1-c1ccc(CN2CCOCC2)cc1`, the results for the negative-log IC50 (pIC50) (in [1]; in the assay on NCI-H3122; in assay [2]) were 6.02, 6.50 and less than 6.00, respectively.

Consider `COc1ccc(NC(=O)CNC(=O)c2noc(-c3cc(C(C)C)c(O)cc3O)c2-c2ccc(CN3CCOCC3)cc2)cc1Nc1ncc(Cl)c(Nc2ccccc2S(=O)(=O)C(C)C)n1`, for which the negative-log IC50 (pIC50) in [1] is 6.97; in the assay on NCI-H3122, 6.23; in assay [2], less than 6.00.

With `CC(C)c1cc(C(=O)N2Cc3ccc(CN4CCN(C)CC4)cc3C2)c(O)cc1O` [ONALESPIB], the pIC50 in the assay with NCI-H3122 is 7.28; in assay [2] it was 7.87.

As for `CCNC(=O)c1noc(-c2cc(C(C)C)c(O)cc2O)c1-c1ccc(CN2CCN(CC(=O)Nc3ccc(OC)c(Nc4ncc(Cl)c(Nc5ccccc5S(=O)(=O)C(C)C)n4)c3)CC2)cc1`, the pIC50 in assay [3] is 8.21; in assay [1] it was 7.76; in [4], 7.07; in the assay with U-87 MG, 6.63; in the assay with HCT-116, 7.09; in the assay on BT-474, 7.28. Further, the negative logarithm of the IC50 (pIC50) in the assay with MDA-MB-231 was 6.98; with NCI-H3122 it was 7.96; with NCI-H460, 6.63; in [2] it was 7.00; in the assay on DU-145 it was 6.64; in the assay on EBC-1 it was 7.33. Further, the pIC50 in assay [5] was 6.67; in the assay with NCI-N87, 6.30; in the assay with A549, 6.54. Further, the inhibition entry in assay [6], in [8] and in assay [9] was “Active” each time. Further, in assay [7], the inhibition result was “Dose-dependent effect”.

Take `COc1ccc(NC(=O)CN2CCN(Cc3ccc4c(c3)CN(C(=O)c3cc(C(C)C)c(O)cc3O)C4)CC2)cc1Nc1ncc(Cl)c(Nc2ccccc2S(=O)(=O)C(C)C)n1`: the pIC50 in assay [3] was 8.22; in assay [1] it was 8.01; in the assay on NCI-H3122, 7.89; in [2], 7.40. Moreover, the inhibition entry in assay [6], in assay [8] and in assay [9] was “Active” in each case. The inhibition result in assay [7] was “Dose-dependent effect”.

For `CCNC(=O)c1noc(-c2cc(C(C)C)c(O)cc2O)c1-c1ccc(CN2CCOCC2)cc1` [LUMINESPIB], the pIC50 in the assay with U-87 MG is 7.51; in the assay with HCT-116 it was 7.80; in the assay on BT-474, 7.85; in the assay on MDA-MB-231 it was 7.68; with NCI-H3122 it was 7.91; with NCI-H460, 7.64. For the same molecule, the pIC50 was 7.68 in the assay on DU-145; 7.89 in the assay on EBC-1; 7.52 in assay [5]; 7.08 in the assay on NCI-N87; 7.22 in the assay with A549.

For the molecule `CCNC(=O)c1noc(-c2cc(C(C)C)c(O)cc2O)c1-c1ccc(CNCC(=O)Nc2cccc(Nc3ncc(Cl)c(Nc4ccccc4S(=O)(=O)C(C)C)n3)c2)cc1`, the pIC50 is 7.99 in assay [1], 6.85 in the assay on NCI-H3122 and 6.43 in assay [2].

As to `COc1ccc(NC(=O)CNC(=O)CN2CCN(Cc3ccc4c(c3)CN(C(=O)c3cc(C(C)C)c(O)cc3O)C4)CC2)cc1Nc1ncc(Cl)c(Nc2ccccc2S(=O)(=O)C(C)C)n1`, the figures for the pIC50 (in assay [1]; in the assay with NCI-H3122; in assay [2]) were 8.39, 6.76 and 7.33, respectively.

`CCNC(=O)c1noc(-c2cc(C(C)C)c(O)cc2O)c1-c1ccc(CNCC(=O)Nc2ccc(OC)c(Nc3ncc(Cl)c(Nc4ccccc4S(=O)(=O)C(C)C)n3)c2)cc1`: the values for the pIC50 (in assay [1]; in the assay with NCI-H3122; in [2]) were 7.62, 7.24 and 6.59, respectively.

Consider `CC(C)c1cc(-c2onc(C(=O)NCC(=O)Nc3cccc(Nc4ncc(Cl)c(Nc5ccccc5S(=O)(=O)C(C)C)n4)c3)c2-c2ccc(CN3CCOCC3)cc2)c(O)cc1O`, for which the pIC50 was 7.27 in [1], 6.35 in the assay on NCI-H3122 and less than 6.00 in [2].

The record behind these values is ChEMBL document CHEMBL4152232, “Design, synthesis and pharmacological evaluation of ALK and Hsp90 dual inhibitors bearing resorcinol and 2,4-diaminopyrimidine motifs” (Eur J Med Chem, 2018).
